The text below walks through data of article PMC6053404, “Enzymatic one-step ring contraction for quinolone biosynthesis” (Nature Communications, 2018).

The target of one assay is T1, AsqI (Aspergillus nidulans, UniProt C8VJQ3).
T1 construct: hexahistidine-tagged, recombinant from Escherichia coli; plasmid pKW18244; zinc-dependent
The experiment in a line: LC-MS initial rate of […]′-methoxyviridicatin […] formation. Format: biochemical. The settings on record: MES Na 100 mM, NaCl 100 mM, pH 5.5, 30 °C; substrate 0.05-0.8 mM, Km extrapolated above tested range.

In the next assay the test system is T2, PngL.
T2 construct: hexahistidine-tagged, recombinant from Escherichia coli; difficult to purify
The experiment in a line: steady-state kinetics. Format: biochemical, Penicillium sp. FKI-2140. The settings on record: accurate parameters prevented by difficult purification; conditions in Supplementary Methods.

T1 sequence (C8VJQ3 whole entry): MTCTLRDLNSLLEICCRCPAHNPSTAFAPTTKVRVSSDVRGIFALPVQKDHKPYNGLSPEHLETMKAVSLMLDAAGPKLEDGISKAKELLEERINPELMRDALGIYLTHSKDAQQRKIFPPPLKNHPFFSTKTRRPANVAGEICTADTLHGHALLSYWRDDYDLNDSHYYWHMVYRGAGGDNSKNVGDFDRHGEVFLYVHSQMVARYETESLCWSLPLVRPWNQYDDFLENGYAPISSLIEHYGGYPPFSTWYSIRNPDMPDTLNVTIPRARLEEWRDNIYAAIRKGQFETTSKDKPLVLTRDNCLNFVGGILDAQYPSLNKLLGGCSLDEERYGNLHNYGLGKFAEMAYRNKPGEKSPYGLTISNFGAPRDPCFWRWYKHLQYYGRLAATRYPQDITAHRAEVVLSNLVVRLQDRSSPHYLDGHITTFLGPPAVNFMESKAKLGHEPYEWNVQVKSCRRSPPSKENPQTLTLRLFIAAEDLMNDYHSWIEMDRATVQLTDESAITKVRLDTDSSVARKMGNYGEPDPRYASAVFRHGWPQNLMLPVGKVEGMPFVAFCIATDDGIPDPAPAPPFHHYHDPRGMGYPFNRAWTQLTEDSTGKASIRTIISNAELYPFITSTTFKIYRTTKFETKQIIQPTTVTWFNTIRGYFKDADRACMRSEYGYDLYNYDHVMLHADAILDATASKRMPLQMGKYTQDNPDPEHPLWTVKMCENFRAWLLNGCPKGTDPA

What is called Km is the substrate concentration at which the rate is half of its maximum. On to `COc1ccc(C2OC23C(=O)Nc2ccccc2C(=O)N3C)cc1` (single isomer, unassigned; (-)) [compound 2, (–)-4′-methoxycyclopenin], for which the Km was 2860 ± 520 µM at AsqI and 350 ± 30 µM in the assay with PngL.
